Results from patent publication US20100204265A1 (priority 2009, published 2010).
pEC50: −log10 of the molar value.

The compounds below were run on ET (Huh-lucubineo-ET) cell line harboring I389luc-ubi-neo/NS3-3′/ET HCV replicon (assay: Replicon assay (HCV replicon, luciferase readout)). Settings: Hepatitis C virus.
Assay type: cell-based
Protocol: A cell line, ET (Huh-lucubineo-ET) is used for screening of compounds for inhibiting HCV RNA dependent RNA polymerase. The ET cell line is stably transfected with RNA transcripts harboring a I389luc-ubi-neo/NS3-3′/ET; replicon with firefly luciferase-ubiquitin-neomycin phosphotransferase fusion protein and EMCV-IRES driven NS3-5B polyprotein containing the cell culture adaptive mutations (E1202G; T1280I; K1846T) (Krieger at al, 2001 and unpublished). The ET cells are grown in DMEM (Dulbeco's Modified Eagle's Medium), supplemented with 10% fetal calf serum, 2 mM Glutamine, Penicillin (100 IU/mL)/Streptomycin (100 μg/mL), 1× nonessential amino acids, and 250 μg/mL G418 (“Geneticin”). They are all available through Life Technologies (Bethesda, Md.). The cells are plated at 0.5−1.0×10^4 cells/well in the 96 well plates and incubated for 24 hrs before adding test compound. The compounds are added to the cells to achieve a final concentration of 0.1 nM to […] and a final DMSO (dimethylsulfoxide) concentration of 0.5%. Luciferase activity is measured 48-72 hours later by adding a lysis buffer and the substrate (Catalog number Glo-lysis buffer E2661 and Bright-Glo luciferase system E2620 Promega, Madison, Wis.). Cells should not be too confluent during the assay. Percent inhibition of replication data is plotted relative to no compound control. Under the same condition, cytotoxicity of the compounds are determined using cell proliferation reagent, WST-1 (Roche, Germany). The compounds showing antiviral activities, but no significant cytotoxicities are chosen to determine EC50 and TC50. For these determinations, a 10 point, 2-fold serial dilution for each compound was used, which spans a concentration range of 1000 fold. EC50 and similarly TC50 values were calculated by fitting % inhibition at each concentration to the following equation:
% inhibition=100%/[(EC50/[I])^b+1]
where b is Hill's coefficient.
Work on `NC(=O)[C@H](CO)NC(=O)Cc1cn2cc(-c3ccoc3)cc(C(F)(F)F)c2n1` (stereo in doubt) [Compound 298, 2-[2-(6-Furan-3-yl-8-trifluoromethyl-imidazo[1,2-a]pyridin-2-yl)-acetylamino]-3-hydroxy-propionamide] yielded a pEC50 of under 4.30.
Work on `O=C(c1nc2c(C(F)(F)F)cc(-c3ccoc3)cn2c1Cl)N1CC=C(c2ncccc2Cl)CC1` [Compound 202, (3-Chloro-3′,6′-dihydro-2′H-[2,4′]bipyridinyl-1′-yl)-(3-chloro-6-furan-3-yl-8-trifluoromethyl-imidazo[1,2-a]pyridin-2-yl)-methanone] yielded a pEC50 of 6.48.
In the case of `COC(=O)C1CCCN1C(=O)c1cn2cc(-c3ccoc3)cc(C(F)(F)F)c2n1` (stereo not drawn) [Compound 254, 1-(6-Furan-3-yl-8-trifluoromethyl-imidazo[1,2-a]pyridine-2-carbonyl)-pyrrolidine-2-carboxylic acid methyl ester], the pEC50 was under 4.30.
`O=C(c1nc2c(C(F)(F)F)cc(-c3cn[nH]c3)cn2c1Cl)N1CC=C(c2cnsc2)C1` [Compound 107, [3-Chloro-6-(1H-pyrazol-4-yl)-8-trifluoromethyl-imidazo [1,2-a]pyridin-2-yl]-(3-isothiazol-4-yl-2,5-dihydro-pyrrol-1-yl)-methanone] showed a pEC50 of 6.62.
Work on `COC(=O)C(NC(=O)Cc1cn2cc(-c3ccoc3)cc(C(F)(F)F)c2n1)c1ccccc1` (stereo not drawn) [Compound 309, [2-(6-Furan-3-yl-8-trifluoromethyl-imidazo[1,2-a]pyridin-2-yl)-acetylamino]-phenyl-acetic acid methyl ester] yielded a pEC50 of under 4.30.
In the case of `NC(=O)CNC(=O)Cc1cn2cc(-c3ccoc3)cc(C(F)(F)F)c2n1` [Compound 300, N-Carbamoylmethyl-2-(6-furan-3-yl-8-trifluoromethyl-imidazo[1,2-a]pyridin-2-yl)-acetamide], the pEC50 was under 4.30.
With `COC(=O)CCNC(=O)Cc1cn2cc(-c3ccoc3)cc(C(F)(F)F)c2n1` [Compound 295, 3-[2-(6-Furan-3-yl-8-trifluoromethyl-imidazo[1,2-a]pyridin-2-yl)-acetylamino]-propionic acid methyl ester] the pEC50 was under 4.30.
`CS(=O)(=O)NC1CN(C(=O)c2nc3c(C(F)(F)F)cc(Br)cn3c2Cl)C1` [Compound 140, N-[1-(6-Bromo-3-chloro-8-trifluoromethyl-imidazo[1,2-a]pyridine-2-carbonyl)-azetidin-3-yl]-methanesulfonamide] showed a pEC50 of 4.86.
With `Cc1ccc(F)c(C2=CCN(C(=O)c3nc4c(C(F)(F)F)cc(-c5ccoc5)cn4c3Cl)CC2)n1` [Compound 207, (3-Chloro-6-furan-3-yl-8-trifluoromethyl-imidazo[1,2-a]pyridin-2-yl)-(3-fluoro-6-methyl-3′,6′-dihydro-2′H-[2,4′]bipyridinyl-1′-yl)-methanone] the pEC50 was 4.75.
Work on `COC(=O)[C@H](CCCCNC(=O)OC(C)(C)C)NC(=O)Cc1cn2cc(-c3ccoc3)cc(C(F)(F)F)c2n1` (stereo in doubt) [Compound 153, 6-tert-Butoxycarbonylamino-2-[2-(6-furan-3-yl-8-trifluoromethyl-imidazo[1,2-a]pyridin-2-yl)-acetylamino]-hexanoic acid methyl ester] yielded a pEC50 of 4.86.
For `COC(=O)C(CC(C)C)NC(=O)c1cn2cc(-c3ccoc3)cc(C(F)(F)F)c2n1` (stereo not drawn) [Compound 156, 2-[(6-Furan-3-yl-8-trifluoromethyl-imidazo[1,2-a]pyridine-2-carbonyl)-amino]-4-methyl-pentanoic acid methyl ester], the pEC50 was 4.33.
In the case of `COC(=O)[C@@H](NC(=O)Cc1cn2cc(-c3ccoc3)cc(C(F)(F)F)c2n1)C(C)(C)C` (stereo in doubt) [Compound 294, 2-[2-(6-Furan-3-yl-8-trifluoromethyl-imidazo[1,2-a]pyridin-2-yl)-acetylamino]-3,3-dimethyl-butyric acid methyl ester], the pEC50 was under 4.30.
Compound `N#CCc1cn2cc(-c3ccoc3)cc(C(F)(F)F)c2n1` [Compound 236, (6-Furan-3-yl-8-trifluoromethyl-imidazo[1,2-a]pyridin-2-yl)-acetonitrile] has a pEC50 of under 4.30.
For `O=C(O)c1nc2c(C(F)(F)F)cc(-c3ccoc3)cn2c1Cl` [Compound 101, 3-Chloro-6-furan-3-yl-8-trifluoromethyl-imidazo[1,2-a]pyridine-2-carboxylic acid], the pEC50 was 5.15.
`CC(C)C(NC(=O)c1cn2cc(-c3ccoc3)cc(C(F)(F)F)c2n1)C(=O)O` (stereo not drawn) [Compound 272, 2-[(6-Furan-3-yl-8-trifluoromethyl-imidazo[1,2-a]pyridine-2-carbonyl)-amino]-3-methyl-butyric acid] gave a pEC50 of under 4.30.
`CS(=O)(=O)NC1CN(C(=O)c2nc3c(C(F)(F)F)cc(-c4ccco4)cn3c2Cl)C1` [Compound 139, N-[1-(3-Chloro-6-furan-2-yl-8-trifluoromethyl-imidazo[1,2-a]pyridine-2-carbonyl)-azetidin-3-yl]-methanesulfonamide] was tested, and the pEC50 was 6.95.
`O=C(c1nc2c(C(F)(F)F)cc(-c3nccs3)cn2c1Cl)N1CC=C(c2ncccc2F)CC1` [Compound 118, (3 -Chloro-6-thiazol-2-yl-8-trifluoromethyl-imidazo[1,2-a]pyridin-2-yl)-(3-fluoro-3′,6′-dihydro-2′H-[2,4′]bipyridinyl-1′-yl)-methanone] gave a pEC50 of 6.18.
`COC(=O)C(Cc1ccccc1)NC(=O)c1cn2cc(-c3ccoc3)cc(C(F)(F)F)c2n1` (stereo not drawn) [Compound 157, 2-[(6-Furan-3-yl-8-trifluoromethyl-imidazo[1,2-a]pyridine-2-carbonyl)-amino]-3-phenyl-propionic acid methyl ester] showed a pEC50 of under 4.30.
`O=C(c1nc2c(C(F)(F)F)cc(-c3cccnc3)cn2c1Cl)N1CC=C(c2nccs2)C1` [Compound 216, (3-Chloro-6-pyridin-3-yl-8-trifluoromethyl-imidazo[1,2-a]pyridin-2-yl)-(3-thiazol-2-yl-2,5-dihydro-pyrrol-1-yl)-methanone] showed a pEC50 of 6.96.
In the case of `CS(=O)(=O)NC1CCN(C(=O)c2nc3c(C(F)(F)F)cc(-c4ccoc4)cn3c2Cl)CC1` [Compound 322, N-[1-(3-Chloro-6-furan-3-yl-8-trifluoromethyl-imidazo[1,2-a]pyridine-2-carbonyl)-piperidin-4-yl]-methanesulfonamide], the pEC50 was 6.57.
Compound `O=C(NCc1cn2cc(-c3ccoc3)cc(C(F)(F)F)c2n1)c1ccccc1` [Compound 130, N-(6-Furan-3-yl-8-trifluoromethyl-imidazo[1,2-a]pyridin-2-ylmethyl)-benzamide] has a pEC50 of 4.30.
`CS(=O)(=O)N1CCN(C(=O)c2nc3c(C(F)(F)F)cc(-c4ccoc4)cn3c2Cl)CC1` [Compound 108, (3-Chloro-6-furan-3-yl-8-trifluoromethyl-imidazo[1,2-a]pyridin-2-yl)-(4-methanesulfonyl-piperazin-1-yl)-methanone] was tested, and the pEC50 was 4.62.
`COC(=O)C(NC(=O)c1cn2cc(-c3ccoc3)cc(C(F)(F)F)c2n1)c1ccccc1` (stereo not drawn) [Compound 255, [(6-Furan-3-yl-8-trifluoromethyl-imidazo[1,2-a]pyridine-2-carbonyl)-amino]-phenyl-acetic acid methyl ester] showed a pEC50 of under 4.30.
`CC(=O)NC1CCN(C(=O)c2nc3c(C(F)(F)F)cc(-c4ccoc4)cn3c2Cl)CC1` [Compound 323, N-[1-(3-Chloro-6-furan-3-yl-8-trifluoromethyl-imidazo[1,2-a]pyridine-2-carbonyl)-piperidin-4-yl]-acetamide] was tested, and the pEC50 was 4.97.
